What follows are compounds tested on human embryonic stem cell derived neural stem cells (NSCs) (assay: Neurogenesis assay: neural stem cell proliferation assay). Settings: 96 h, compound concentration at which 150% activity of control (100%) is reached, increase in cells based on ATP levels (CellTiterGlo), 4 days incubation, dose response 8 μM to 8 nM.
Experimental: Neural Stem Cell Proliferation Assay
Neurogenic properties of small molecules are determined based on the proliferation of human embryonic stem cell derived neural stem cells (NSCs) which were derived via a dual smad inhibition as previously described (Chambers, S. M., et al., Highly efficient neural conversion of human ES and iPS cells by dual inhibition of SMAD signaling, Nature biotechnology, 2009 27(3): p. 275-80.).
Compounds response is measured by the increase in cells based on ATP levels (Promega:CellTiterGlo®) after an incubation period of 4 days. NSCs are thawed and expanded over 3 passages. On the 14th day, NSCs are seeded in Polyornithin/Laminin coated 384 well plates at a cell density of 21,000 cells/cm^2 in a media volume of 38 μl.
4 hours after cell seeding, compound solutions are added at a volume of 2 μl. Stock solutions of the compounds (water, 5% DMSO) are diluted to obtain a dose response (11 points, dilution factor is 2), ranging from 8 μM to 8 nM. Controls are run to consistently determine the neurogenic properties of the cells:
Negative (neutral) control is cell culture Media (final DMSO concentration: 0.25%).
1. cell culture Media+100 ng/ml FGF2 (final DMSO concentration: 0.1%)
2. cell culture Media+20 ng/ml EGF (final DMSO concentration: 0.1%)
3. cell culture Media+100 ng/ml Wnt3a (final DMSO concentration: 0.1%)
After 4 days incubation at 37° C., 5% CO2, the amount of ATP per well is quantified. The ATP concentration is proportional to the cell number. ATP is quantified by using the Promega CellTiterGlo® kit. The CellTiterGlo® reagents contain a cell lysis buffer, a thermo stable luciferase (UltraGlo™ recombinant luciferase), magnesium and luciferin. Luciferin reacts with ATP producing oxyluciferin, AMP and light. The luminescence signal is proportional to the ATP content.
The value of negative (neutral) control is determined for each assay plate by taking the average of 16 negative control wells. The neurogenic compound response is calculated for each compound as (compound/Negative Control)*100. The values of EC150 from the dose response curve are determined for each test compound. The EC150 is the compound concentration at which 150% activity of control (100%) is reached.
Compound `COc1cccc(CN2CCN(c3ccc(-c4cnco4)c(OC)c3)C2=O)c1` [Example 68, 1-[3-Methoxy-4-(1,3-oxazol-5-yl)phenyl]-3-[(3-methoxyphenyl)methyl]imidazolidin-2-one] has an EC (150% of control) of 0.316 µM. With `COc1cc(N2CCN(Cc3ccccc3Cl)C2=O)ccc1-c1cnco1` [Example 69, 1-[(2-Chlorophenyl)methyl]-3-[3-methoxy-4-(1,3-oxazol-5-yl)phenyl]imidazolidin-2-one] the EC (150% of control) was 2.24 µM. Compound `COc1cccc(C2CCN(c3ccc(-c4ccncc4)c(OC)c3)C2=O)c1` (centres unmarked) [Example 70, 3-(3-Methoxyphenyl)-1-(3-methoxy-4-pyridin-4-ylphenyl)pyrrolidin-2-one] has an EC (150% of control) of 0.0613 µM. With `COc1cccc(C2CCN(c3ccc(-c4ccncc4)cc3)C2=O)c1` (centres unmarked) [Example 71, 3-(3-Methoxyphenyl)-1-(4-pyridin-4-ylphenyl)pyrrolidin-2-one] the EC (150% of control) was 0.0155 µM. For `O=C1N(Cc2cccc(F)c2)CCN1c1ccc(-c2cnco2)cc1` [Example 72, 1-[(3-Fluorophenyl)methyl]-3-[4-(1,3-oxazol-5-yl)phenyl]imidazolidin-2-one], the EC (150% of control) was 1.07 µM. Compound `O=C1N(Cc2ccccc2F)CCN1c1ccc(-c2cnco2)cc1` [Example 73, 1-[(2-Fluorophenyl)methyl]-3-[4-(1,3-oxazol-5-yl)phenyl]imidazolidin-2-one] has an EC (150% of control) of 1.49 µM. `COc1cc(N2CCN(Cc3ccccc3F)C2=O)ccc1-c1cnco1` [Example 74, 1-[(2-Fluorophenyl)methyl]-3-[3-methoxy-4-(1,3-oxazol-5-yl)phenyl]imidazolidin-2-one] gave an EC (150% of control) of 2.7 µM. With `COc1cc(N2CCN(Cc3cccc(F)c3)C2=O)ccc1-c1cnco1` [Example 75, 1-[(3-Fluorophenyl)methyl]-3-[3-methoxy-4-(1,3-oxazol-5-yl)phenyl]imidazolidin-2-one] the EC (150% of control) was 0.597 µM.

From US9714239B2, “N-phenyl-lactam derivatives capable of stimulating neurogenesis and their use in the treatment of neurological disorders” (Hoffmann-La Roche Inc., priority 2014, dated 2017)
